Experimental data as given in patent US11932654B2, “Nimbolide analogs as anti-cancer agents and preparation thereof” (priority 2018, dated 2024).

Columns and labels:
caspase-8 = test: Caspase assay activity, caspase-8, Panc-1 cells; type: cell-based; conditions: fluorimetric assay, increasing concentrations
Procedure: (§1) Caspase assay activity: Caspase-3, caspase-8 and caspase-9 protease activities were determined using a commercial fluorescence assay kit according to the manufacturer's instructions, Briefly, pancreatic cancer cells were treated with different concentrations of IM-1372-Kn-13 for 24 h were re-suspended in 50 μL of chilled cell lysis buffer; cells were then incubated on ice for 10 min and centrifuged for 1 min in a micro-centrifuge (10,000 g). Then supernatants were transferred (cytosolic extract) to a fresh tube and protein concentration was assayed. Next, diluted 100 μg protein was added to 50 μL cell lysis buffer for each assay. Subsequently, 50 μL of 2× reaction buffer and 5 μL of the 4 mM Ac-DEVD AMC (caspase-3)/Ac-VETD-AMC (caspase-8)/[…] were added and incubated at 37° C. for 2 h (samples read at […] in a microtiter plate reader).

[1] = tested on: Panc-1 pancreatic cancer cell line; test: In vitro anticancer activity, SRB assay, Panc-1; type: cell-based; conditions: Homo sapiens, 48 h, NA = Not Active
Procedure: (§2) Cell culture: Human lung adenocarcinoma cell line (A549 cell line), pancreatic cancer cell line (Panc-1, Pan-02), prostate cancer cell line (DU145, PC3), Brest cancer cell line (MCF-7) was grown in DIEM (Dulbecco's modifications of eagle's medium with L-glutamine & 4.5 g/L glucose) supplemented with fetal bovine serum in a humidified atmosphere of a 5% CO2 at 37° C.
(§3) In vitro anticancer activity: Cells were harvested from exponential phase cultures by trypsinization, counted and plated in 96-well plate. Optimal seeding densities for different cell lines in each plate were 5000 cells per well. After 24 h cells were treated with \ the newly synthesized compound at a dose range of 0.1-100 μm final concentration. Thereafter, cells were allowed to grow for 48 h before determination of cell survival by the SRB assay. Then the cells were fixed with 10% cold trichloroacetic acid for 1 h at 4° C. After two washes with deionized water, fixed cells were stained with 50 μL of SRB solution (1% in acetic acid) for 30 min and subsequently washed twice with 1% acetic acid to remove unbound stain. The plates were left to dry at room temperature and bound stain was solubilized with 100 μL of 10 mM buffered Tris base for reading the […] at 540 nm.

[2] = Biochemical analysis of serum of tumor xenograft mice; type: in vivo, nude mice; conditions: for Albumin / Alkaline phosphatase / Creatinine / Glucose / SGOT / SGPT / Total protein / Urea: xenograft mice, mean ± SE
Procedure: Establishment of Pancreatic cancer xenograft model: To establish tumor in mice, Pan-02 cells (7×10^6) were suspended in 1:1 RPMI medium mixed with matrigel and subcutaneously implanted on right flank of the each mice. The injection sites were examined daily for the appearance of tumors. On 10th day these animals were randomized and divided into 3 groups (6 mice in each group). Group I served as control group received 20% ethanol three times in a week. Test group animals in Group II and III received intratumoral injection of IM-1372-Kn-13 at 10 mg and 25 mg/kg body weight respectively three times in a week. All groups received 5 repeated doses in 12 days. Mice were weighed and tumor volumes were measured 3 times a week by Vernier caliper. Tumor volume in individual mice was calculated by the following formula. 0.5×L (W)^2, Where L is length, W is width of the tumor. The control group animals were euthanized when tumor volume is reached heavier to animal. One-week after completion of treatment period, the animals were sacrificed, and tumors were excised, fixed, and embedded in paraffin. At the end of treatment, blood samples were collected to perform clinical biochemistry.
Biochemical analysis: In acute toxicity experiment, blood samples were collected from all the animals 1 week after the last dose and mice were sacrificed by cervical decapitation. The obtained serum was analyzed in clinical chemistry for the assessment of liver function tests (LFT), activity of serum alkaline phosphatase (ALP), alanine aminotransferase (ALT), aspartate aminotransferase (AST), kidney function tests (RFT) (serum urea and creatinine). The same tests were performed for serum samples collected from three groups of tumor xenograft mice used for determining in vivo activity of test compound against pancreatic cancer. The measurement of these biochemical parameters was done in Clinical Biochemical analyzer (Tulip coralab 3000™).

p27 = test: Western blotting analysis on Panc-1 cell line, p27; type: cell-based; conditions: panc-1 cells, various concentrations, 24 h, Western blot
Procedure: Western blotting analysis of IM-1372-Kn-13 on Panc-1 cell line: The cells were lysed in RIPA buffer (50 mM-tris (PH-7.4), 150 Min-Nacl, 1%-NP-40, 0.1%-SDS, 0.5%-Sodium-deoxycholate, 1 mM EDTA, 5 mM NaF, 5 mM Na—O-vandate, 1 mM PMSF, Protease inhibitor cocktail. The lysates were cleared by centrifugation at […] and concentration of protein was estimated by bradford assay. For Western blot analysis, equivalent amount of protein was resolved in SDS-PAGE and then transferred to polyvinylidene difluoride ([…]) membrane. Ti avoid non specific binding of antibodies, the membranes were blocked using 3% BSA in TBS with 0.5% Tween (TBST) for 1 h at room temperature. The membranes were then incubated in primary antibody overnight at 4° C. After removing excess primary antibody bound to membranes, blots were incubated with secondary anti body. Then the signal emitted was captured using chemiluminescence substrate.

[3] = tested on: MCF-7 breast cancer cell line; test: In vitro anticancer activity, SRB assay, MCF-7; type: cell-based; conditions: Homo sapiens, MCF7, 48 h, NA = Not Active
Procedure: as §2, §3

caspase-3 = test: Caspase assay activity, caspase-3, Panc-1 cells; type: cell-based; conditions: fluorimetric assay, increasing concentrations
Procedure: as §1

caspase-9 = test: Caspase assay activity, caspase-9, Panc-1 cells; type: cell-based; conditions: fluorimetric assay, increasing concentrations
Procedure: as §1

[4] = tested on: Pan-02 pancreatic cancer cell line; test: In vitro anticancer activity, SRB assay, Pan-02; type: cell-based; conditions: Pan02, 48 h
Procedure: as §2, §3

COC(=O)C[C@H]1[C@]2(C)C3=C(C)[C@H](C4=CC5OC4C(C(=O)OC)=C5C(=O)OC)C[C@@H]3O[C@@H]2[C@@H]2OC(=O)[C@]3(C)C=CC(=O)[C@@]1(C)C23 (some centres unmarked) [A4]
activity of caspase-8 (caspase-8): increased significantly in a dose-dependent manner | IC50 [1]: 9.08 µM | serum total protein and albumin levels ([2]; group II and III compared to control group I): significantly increased | serum ALT, AST and ALP enzyme activities ([2]; treated xenograft groups vs elevated control group I): returned to normal | elevated levels of serum urea and creatinine ([2]; tumor-bearing mice, compared to group I): significantly fetched down | Albumin ([2]; 10 mg/kg): 3.16 ± 0.2 g/dL | Alkaline phosphatase ([2]; 10 mg/kg): 685.26 ± 28.8 U/L | Creatinine ([2]; 10 mg/kg): 1.56 ± 0.4 mg/dL | Glucose ([2]; 10 mg/kg): 77.60 ± 3.0 mg/dL | SGOT ([2]; 10 mg/kg): 56.12 ± 5.8 U/L | SGPT ([2]; 10 mg/kg): 47.05 ± 5.8 U/L | Total protein ([2]; 10 mg/kg): 6.24 ± 0.5 g/dL | Urea ([2]; 10 mg/kg): 46.81 ± 5.8 mg/dL | Albumin ([2]; 25 mg/kg): 3.61 ± 0.1 g/dL | Alkaline phosphatase ([2]; 25 mg/kg): 545.63 ± 24.9 U/L | Creatinine ([2]; 25 mg/kg): 0.80 ± 0.1 mg/dL | Glucose ([2]; 25 mg/kg): 108.42 ± 4.7 mg/dL | SGOT ([2]; 25 mg/kg): 32.20 ± 2.4 U/L | SGPT ([2]; 25 mg/kg): 24.49 ± 4.0 U/L | Total protein ([2]; 25 mg/kg): 8.05 ± 0.3 g/dL | Urea ([2]; 25 mg/kg): 41.23 ± 3.7 mg/dL | expression of p27 protein (p27): reduced | IC50 [3]: 12.5 µM | activity of caspase-3 (caspase-3): increased significantly in a dose-dependent manner | activity of caspase-9 (caspase-9): increased significantly in a dose-dependent manner | IC50 [4]: 0.52 µM
